Test results as given in US7939267B2, “Detection of activation of endothelial cells as surrogate marker for angiogenesis” (Laboratory Corporation of America Holdings, priority 2004, dated 2011).
Where two headings read alike, the source gives them in different places.

B1: Ang-1: angiopoietin-1, major physiological ligand for Tie-2, used to stimulate HUVEC cells (protein, UniProt Q15389 16-498, looked up)
Angiopoietin-1: HIGCSNQRRSPENSGRRYNRIQHGQCAYTFILPEHDGNCRESTTDQYNTNALQRDAPHVEPDFSSQKLQHLEHVMENYTQWLQKLENYIVENMKSEMAQIQQNAVQNHTATMLEIGTSLLSQTAEQTRKLTDVETQVLNQTSRLEIQLLENSLSTYKLEKQLLQQTNEILKIHEKNSLLEHKILEMEGKHKEELDTLKEEKENLQGLVTRQTYIIQELEKQLNRATTNNSVLQKQQLELMDTVHNLVNLCTKEGVLLKGGKREEEKPFRDCADVYQAGFNKSGIYTIYINNMPEPKKVFCNMDVNGGGWTVIQHREDGSLDFQRGWKEYKMGFGNPSGEYWLGNEFIFAITSQRQYMLRIELMDWEGNRAYSQYDRFHIGNEKQNYRLYLKGHTGTAGKQSSLILHGADFSTKDADNDNCMCKCALMLTGGWWFDACGPSNLNGMFYTAGQNHGKLNGIKWHYFKGPSYSLRSTTMMIRPLDF

Assays:
VEGFR2-VEGFR2 homodimers [1] = biological target: T1, VEGFR2-VEGFR2 homodimers (Homo sapiens, UniProt P35968)
T1 sequence (P35968 20-1356): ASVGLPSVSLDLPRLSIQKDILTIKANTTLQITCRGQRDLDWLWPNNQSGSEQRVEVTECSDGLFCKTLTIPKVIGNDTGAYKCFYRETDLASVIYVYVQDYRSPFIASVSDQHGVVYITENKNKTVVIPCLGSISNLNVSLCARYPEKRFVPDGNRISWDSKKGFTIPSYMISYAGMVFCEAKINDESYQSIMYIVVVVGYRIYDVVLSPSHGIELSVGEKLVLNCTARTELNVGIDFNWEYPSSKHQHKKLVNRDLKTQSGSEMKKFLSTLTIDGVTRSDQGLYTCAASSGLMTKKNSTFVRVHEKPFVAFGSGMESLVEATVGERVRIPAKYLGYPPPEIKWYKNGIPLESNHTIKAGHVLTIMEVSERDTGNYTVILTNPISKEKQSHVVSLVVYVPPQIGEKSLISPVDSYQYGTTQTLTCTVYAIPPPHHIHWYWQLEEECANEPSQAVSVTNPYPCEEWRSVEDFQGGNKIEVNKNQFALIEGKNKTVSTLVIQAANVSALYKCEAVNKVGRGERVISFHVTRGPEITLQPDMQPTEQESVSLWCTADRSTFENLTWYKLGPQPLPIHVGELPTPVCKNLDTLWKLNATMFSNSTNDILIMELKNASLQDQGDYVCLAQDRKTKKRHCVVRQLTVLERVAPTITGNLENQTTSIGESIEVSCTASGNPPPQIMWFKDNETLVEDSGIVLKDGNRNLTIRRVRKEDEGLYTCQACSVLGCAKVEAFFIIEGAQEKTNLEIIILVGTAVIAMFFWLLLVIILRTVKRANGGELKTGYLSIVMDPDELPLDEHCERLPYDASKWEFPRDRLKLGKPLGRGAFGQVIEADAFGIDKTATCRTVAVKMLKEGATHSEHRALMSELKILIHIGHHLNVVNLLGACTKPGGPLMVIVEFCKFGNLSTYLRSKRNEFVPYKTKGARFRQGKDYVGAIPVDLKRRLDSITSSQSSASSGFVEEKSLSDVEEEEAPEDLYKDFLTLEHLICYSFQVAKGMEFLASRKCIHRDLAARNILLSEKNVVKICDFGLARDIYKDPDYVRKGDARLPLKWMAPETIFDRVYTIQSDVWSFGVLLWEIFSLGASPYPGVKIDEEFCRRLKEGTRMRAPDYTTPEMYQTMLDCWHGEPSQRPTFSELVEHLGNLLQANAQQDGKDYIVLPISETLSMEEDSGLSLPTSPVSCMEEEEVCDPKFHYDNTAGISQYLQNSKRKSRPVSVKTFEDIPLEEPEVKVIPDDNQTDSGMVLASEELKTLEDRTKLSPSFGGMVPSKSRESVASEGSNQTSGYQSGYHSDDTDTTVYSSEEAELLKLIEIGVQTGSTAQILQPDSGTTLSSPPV
Method: (§1) In this example, VEGFR2-VEGFR2 homodimers and phosphorylation states were measured in cell lysates from several cell lines after treatment with various concentrations of vascular endothelial growth factor (VEGF). Measurements were made using three binding compounds and a cleaving probe as described below.
(§2) • 1. Serum-starve human umbilical vein endothelial cell line (HUVEC) culture overnight before use. • 2. Stimulate cell lines with VEGF in culture media for a set period of time (1, 3, 5, 9, 14 minutes) at 37° C. Exemplary doses of VEGF are 0, 2, 10, 25, 50, 250, 1000 ng/mL. • 3. Aspirate culture media, transfer onto ice, and add lysis buffer to lyse cells in situ. • 4. Scrape and transfer lysate to microfuge tube. Incubate on ice for 30 min. Microfuge at 14,000 rpm, 4° C., for 10 min. (Centrifugation is optional.) • 5. Collect supernatants as lysates and aliquot for storage at −80° C. until use. Assay:
(§3) Assay design: As illustrated diagrammatically in FIG. 7A, VEGFR2-VEGFR2 (R2-R2) homodimers (900) are quantified ratiometrically based on the binding of a cleaving probe (902), a first bind compound (904) which is specific for the same antigenic determinant on VEGFR2 as the cleaving probe, a second binding compound (906) which is specific for a different antigenic determinant on VEGFR2 from the cleaving probe, and a third binding compound (908) which is specific for phosphorylated tyrosine. A photosensitizer is attached to the cleaving probe (902) via an avidin-biotin linkage, and the first, second, and third binding compounds are labeled with molecular tags Pro10, Pro14, and Pro2, respectively.
(§4) The total assay volume was 40 ul. The lysate volume was adjusted to 30 ul with lysis buffer. The antibodies are diluted in lysis buffer up to 10 ul. Typically ˜5000 to 15000 cell-equivalent of lysates is used per reaction. The detection limit is ˜1000 cell-equivalent of lysates.
(§5) Procedure: Final concentrations of pre-mixed binding compounds (i.e. molecular tag- or biotin-antibody conjugates) in reaction: • Pro10_anti-VEGFR2: 0.25 ug/ml (VEGFR2 homodimer) • Pro14_anti-VEGFR2: 0.25 ug/ml (total VEGFR2) • Pro2_anti-phospho-Tyr: 0.0125 ug/ml (phosphorylation) • Biotin_anti-VEGFR2: 0.25 ug/ml • 1. To assay 96-well, add 10 ul antibody mix to 30 ul lysate and incubate for 1 hour at RT. • 2. Add 2 ul streptavidin-derivatized cleaving probe (final 2 ug/well) to assay well and incubate for 45 min. • 3. Add 150 ul of wash buffer to 96-well filter plate (Millipore MAGVN2250) and incubate for 1 hr at RT for blocking. • 4. Empty filter plate by vacuum suction.

VEGFR2 = VEGFR2 (Homo sapiens, UniProt P35968)
Sequence of VEGFR2 (P35968 20-1356): as above
Method: as §1, §2, §3, §4, §5

Akt = settings: HUVEC, increasing VEGF concentrations, data not shown
From the text: Results of the assays are illustrated in FIGS. 10A, 10B and 10C.

VEGFR2-VEGFR2 homodimers [2] = biological target: T1, VEGFR2-VEGFR2 homodimers; remark: listed apart in the source
Method: • 1. […] Scrape and transfer lysate to microfuge tube. Incubate on ice for 30 min. […]

BAD = BAD phosphorylation in HUVEC cell lysates, releasable molecular tag assay; format: cell-based, human; settings: increasing VEGF concentrations, 5 min stimulation time (FIG. 10C)
Method: • 1. […] Scrape and transfer lysate to microfuge tube. Incubate on ice for 30 min. […] (Centrifugation is optional.) • 5. […] Assay:
(§6) The total assay volume was 40 ul. […] The detection limit was ˜1000 cell-equivalent of lysates.
Pro52_anti-BAD (Total), 5 nM
Pro46_anti-Phospho-BAD (Phosphorylation), 5 nM
Pro53_anti-phospho-RSK (Phosphorylation), 5 nM • 1. […] Add 20 μl of Antibody mixture. • 3. […] Empty filter plate by vacuum suction. • 6. […] Repeat step 6 one more time. • 8. […] Illuminate the plate for 10 min. • 10.

Erk = settings: HUVEC, increasing VEGF concentrations, 5 min stimulation time (FIG. 10A)
Method: as §2
(§7) The total assay volume was 40 ul. The lysate volume was adjusted to 30 ul with lysis buffer.

RSK = settings: HUVEC, increasing VEGF concentrations, 5 min stimulation time (FIG. 10B)
Method: as §2, §7

Tie2-Tie2 homodimers = biological target: T2, Tie2-Tie2 homodimers (Homo sapiens, UniProt Q02763); test: Tie2 homodimerization in HUVEC cell lysates, releasable molecular tag assay; format: cell-based
T2 construct: endogenous in cells; host or cells: HUVEC
T2 sequence (Q02763 23-1124): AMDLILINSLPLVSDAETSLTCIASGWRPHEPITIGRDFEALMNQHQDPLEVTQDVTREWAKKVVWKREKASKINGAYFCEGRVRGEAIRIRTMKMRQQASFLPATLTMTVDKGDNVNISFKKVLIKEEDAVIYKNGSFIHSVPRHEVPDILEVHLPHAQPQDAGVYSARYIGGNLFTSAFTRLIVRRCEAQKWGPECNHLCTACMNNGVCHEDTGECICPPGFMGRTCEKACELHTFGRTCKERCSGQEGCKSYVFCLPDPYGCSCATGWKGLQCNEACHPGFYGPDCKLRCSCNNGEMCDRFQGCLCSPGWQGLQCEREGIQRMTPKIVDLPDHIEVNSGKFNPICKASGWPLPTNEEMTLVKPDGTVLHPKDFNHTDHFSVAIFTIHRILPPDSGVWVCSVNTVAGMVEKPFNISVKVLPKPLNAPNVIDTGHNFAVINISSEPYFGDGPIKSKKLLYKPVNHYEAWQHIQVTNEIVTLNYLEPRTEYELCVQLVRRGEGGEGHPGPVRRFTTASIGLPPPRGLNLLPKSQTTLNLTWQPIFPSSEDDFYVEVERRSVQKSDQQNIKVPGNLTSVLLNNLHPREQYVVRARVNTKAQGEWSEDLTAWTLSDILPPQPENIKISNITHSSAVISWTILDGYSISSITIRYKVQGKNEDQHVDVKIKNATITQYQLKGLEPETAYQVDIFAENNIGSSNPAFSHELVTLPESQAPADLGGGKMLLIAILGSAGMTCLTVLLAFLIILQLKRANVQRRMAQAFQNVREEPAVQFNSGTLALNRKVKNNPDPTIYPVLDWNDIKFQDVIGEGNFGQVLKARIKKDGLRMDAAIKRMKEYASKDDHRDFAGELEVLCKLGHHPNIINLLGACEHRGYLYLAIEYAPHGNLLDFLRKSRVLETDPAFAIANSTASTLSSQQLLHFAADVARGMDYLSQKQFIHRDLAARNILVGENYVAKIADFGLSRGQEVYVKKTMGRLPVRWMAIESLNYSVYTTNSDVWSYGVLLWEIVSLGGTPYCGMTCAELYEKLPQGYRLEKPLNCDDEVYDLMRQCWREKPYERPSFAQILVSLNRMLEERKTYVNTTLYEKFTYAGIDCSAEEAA
Method: (§8) • 1. […] Stimulate cell lines with 200 ng/mL Ang-1 in culture media for a set period of time (10, 30 minutes) at 37° C. • 3. […] Scrape and transfer lysate to microfuge tube. Incubate on ice for 30 min. […] (Centrifugation is optional.) • 5. […] Assay:
(§9) Assay design: As illustrated diagrammatically in FIG. 4C, Tie2-Tie2 homodimers are quantified ratiometrically based on the binding of cleaving probe (134) and binding compounds (130), and (132). A photosensitizer indicated by “PS” is attached to cleaving probe (134) via an avidin-biotin linkage, and binding compounds (130), and (132) are labeled with molecular tags Pro10, and Pro14, respectively.
as §6
Pro10_anti-Tie2: 0.25 ug/ml (Tie2 homodimer)
(§10) Pro14_anti-Tie2: 0.25 ug/ml (total Tie2)
(§11) Biotin_anti-Tie2: 0.25 ug/ml • 1. […] Empty filter plate by vacuum suction. […] Repeat one time. • 6. […] Repeat one time. • 7. […] Assay buffers are as previously described. Data Analysis: • 1. […] Report homodimerization of Tie2 as the corresponding RFU ratiometric to RFU from Pro14_anti-Tie2 from assay wells using biotin_anti-Tie2.

Tie2 = biological target: T3, Tie2 (Homo sapiens, UniProt Q02763); test: Total Tie2 receptor in HUVEC cell lysates, releasable molecular tag assay; format: cell-based; settings: Ang-1 treatment (FIG. 8B)
T3 construct: endogenous in cells; host or cells: HUVEC
T3 sequence (Q02763 23-1124): as above
Method: as §8, §9, §6, §10, §11

Molecule	VEGFR2-VEGFR2 homodimer formation over time (VEGFR2-VEGFR2 homodimers [1])	VEGFR2 homodimerization (VEGFR2-VEGFR2 homodimers [1])	quantity of VEGFR2-VEGFR2 homodimers (VEGFR2-VEGFR2 homodimers [1])	VEGFR2 phosphorylation (VEGFR2)	VEGFR2 phosphorylation over time (VEGFR2)	phosphorylation of Akt (Akt)	VEGFR2 homodimerization (VEGFR2-VEGFR2 homodimers [2])	phosphorylation state of BAD (BAD)	phosphorylation state of Erk (Erk)	phosphorylation state of RSK (RSK)	quantity of Tie2-Tie2 homodimers (Tie2-Tie2 homodimers; 200 ng/mL Ang-1, 10 min of stimulation (FIG. 8A))	quantity of Tie2-Tie2 homodimers (Tie2-Tie2 homodimers; 200 ng/mL Ang-1, 30 min stimulation (FIG. 8A))	total amount of Tie2 receptor (Tie2)
VEGF	form by 1 minute of VEGF stimulation, and remain after up to 14 minutes of stimulation	large increase in VEGFR2 homodimerization	increases on HUVEC cells with increasing concentrations of VEGF	increases on HUVEC cells with increasing concentrations of VEGF	transient, peaking at 1 minute of stimulation and decreasing to background level by 5 minutes	increased on HUVEC cells with increasing concentrations of VEGF	large increase in VEGFR2 homodimerization	increases on HUVEC cells with increasing concentrations of VEGF	increases on HUVEC cells with increasing concentrations of VEGF	increases on HUVEC cells with increasing concentrations of VEGF			
B1											increase on HUVEC cells	decreases from that level	does not change with Ang-1 treatment
